Measurements as given in patent US7863040B2, “Ready-to-use whole blood collection vessel” (Roche Diagnostics Operations, Inc., priority 2006, dated 2011).

Assays:
erythrocytes [1] = test: Visual evaluation of hemolysis (time until a clear solution is observed); assay type: cell-based
Procedure: Whether the conditions for differential hemolysis are appropriate can be easily and preferably determined by using the following standardized procedure. A whole blood sample with a hematocrit of 40 is diluted 1:10 and then mixed 1:1 with the candidate hemolysis reagent. The efficacy of a reagent for bringing about differential hemolysis is seen visually. Upon lysis of the erythrocytes the mixture becomes clear. If precipitation of sample constituents occurs the sample becomes turbid or viscous or both.
As indicated above, the conditions used in a method of differential hemolysis according to the present invention can easily be assessed visually. If a whole blood sample is incubated with an appropriate candidate reagent for differential hemolysis the minimal concentration required to hemolyze red blood cells can be recognized as the concentration rendering the turbid blood sample transparent or clear. The highest possible concentration is the one still leading to a transparent and non-viscous sample.
(§1) Solution A: Fresh EDTA-stabilized whole blood is diluted with 0.15 molar sodium chloride solution in the ratio 1:10 (50 μL EDTA-blood plus 450 μL sodium chloride solution).
In the case of the addition of a second anion, e.g., iodine (1-Butyl-3-methylpyridiniumchloride/KJ) the stated salt is added in an equimolar amount.
Hemolysate is prepared by mixing solution A and B in equal volumes, e.g., 500 μL solution A plus 500 μL solution B.
After mixing the hemolysate is inspected visually for turbidometry and clearness immediately after mixing, after 1 minute, 2, 5, 6, 7, 20 and 40 minutes. The time until a clear solution is observed is recorded.

erythrocytes [2] = test: Microscopic evaluation of hemolysis, May-Grünwald staining; assay type: cell-based
Procedure: Solution A: Fresh EDTA-stabilized whole blood is diluted with 0.15 molar sodium chloride solution in the ratio 1:10 (50 μL EDTA-blood plus 450 μL sodium chloride solution). Solution B: […] Hemolysate is prepared by mixing solution A and B in equal volumes, e.g., 20 μL solution A plus 20 μL solution B After mixing of the hemolysate a droplet is smeared on a microscope slide, air dried at room temperature and stained with May-Grünwald staining reagent (Merck Cat. No. 1.01424 May-Grünwald's Eosin Methylene Blue Solution). […] Microscopy is performed by oil immersion light microscopy (magnification ×630).

[3] = tested on: EDTA-anticoagulated whole blood; test: Processing of EDTA-anticoagulated whole blood in a tube with reagent for differential hemolysis (time to optically clear lysate); assay type: cell-based
Procedure: This reagent for differential hemolysis thus has a concentration of about 25% BMPBF4. […] 250 microliter of EDTA-anticoagulated whole blood is pipetted into a vial containing 5 milliliter of this lysis reagent. For hemolysis the content of the tube is gently mixed by shaking. An optically clear lysate is obtained within five minutes. The lysate is stored at 4° C. Stability of the lysate is inspected after 1, 4 and 7 days by visual inspection. […] This reagent for differential hemolysis thus has a concentration of about 2% Me-octPCl. 250 microliter of EDTA-anticoagulated whole blood is pipetted into a vial containing 5 milliliter of this lysis reagent. For hemolysis the content of the tube is gently mixed by shaking. An optically clear lysate is obtained within five minutes. The lysate is stored at 4° C. Stability of the lysate is inspected after 1, 4 and 7 days by visual inspection. […] This reagent for differential hemolysis has a concentration of about 15% Me-octPCl. […] For hemolysis the content of the tube is gently mixed by shaking. An optically clear lysate is obtained within five minutes. The lysate is stored at 4° C. Stability of the lysate is inspected after 1, and 2 days by visual inspection. […] This reagent for differential hemolysis has a concentration of about 10% COMPCl. […]

erythrocytes [4] = test: Microscopic evaluation of hemolysis, Trypane blue staining; assay type: cell-based; settings: 1 in 10 diluted whole blood, reagent 25%
Procedure: The integrity of red blood cells can for example be easily assessed by appropriate life stains. In a preferred embodiment according to the present invention trypane blue is used in order to assess the integrity of a red blood cell membrane. […] The membrane integrity of a red blood cell is easily assessed under the microscope after staining a sample with trypane blue. The percentage of disrupted red blood cells is calculated by counting intact red blood cells before and after the treatment, by then dividing the first number by the latter number and by then multiplying this value by 100. Red blood cells that are solubilized are referred to as lyzed red blood cells or as lyzed erythrocytes.
as §1
Solution B: A solution of the hemolysis reagent in 0.15 molar sodium chloride is prepared where the concentration of the hemolysis reagent is twice as high as the desired final concentration in the hemolysate, e.g., to get a final concentration of 25% of 1-Butyl-4-methylpyridinium tetrafluoroborate a solution of 50% ([…] plus 50 mL 0.15 molar sodium chloride in water) is prepared. […]

[5] = in vivo; cited from earlier work
[6] = cited from earlier work
[7] = final concentration 25% (weight/volume), whole blood final dilution 1:20
[8] = final concentration 12.5% (weight/volume)

CCCC[n+]1cccc(C)c1.[Cl-] [1-Butyl-3-methyl pyridiniumchloride, 1-Butyl-3-methylpyridiniumchloride]
clear after (min.) (erythrocytes [1]; [7]): turbid

CCCCn1cc[n+](C)c1.F[B-](F)(F)F [1-Butyl-3-methyl-imidazolium tetrafluoroborate]
clear after (erythrocytes [1]; [7]): 20 min

CCCC[n+]1ccc(C)cc1.F[B-](F)(F)F [1-Butyl-4-methylpyridinium tetrafluoroborate]
Light microscopy of hemolyzed whole blood, May-Grünwald staining (erythrocytes [2]; 1 in 10 diluted whole blood, reagent 25%): No erythrocytes or membranes are left, nuclei are still intact | time until optically clear lysate is obtained ([3]; 250 microliter blood into 5 milliliter reagent, about 25% BMPBF4): five | clear after (min.) (erythrocytes [1]; final concentration 6% (weight/volume)): Turbid | clear after (erythrocytes [1]; [8]): 40 min | clear after (erythrocytes [1]; [7]): 20 min | Light microscopy of hemolyzed whole blood, Trypane blue staining (erythrocytes [4]; 2.5 min incubation time): Only few residual erythrocytes are left | Light microscopy of hemolyzed whole blood, Trypane blue staining (erythrocytes [4]; 15 min incubation time): No erythrocytes or membranes are left

CCCCCC[n+]1ccccc1.[Cl-] [1-Hexylpyridiniumchloride]
clear after (min.) (erythrocytes [1]; [8]): turbid | clear after (erythrocytes [1]; [7]): 7 min

CCCCCCCC[N+]1(C)CCCC1.[Cl-] [1-Methyl-1-octyl pyrrolidiniumchloride]
clear after (min.) (erythrocytes [1]; final concentration 2.5% (weight/volume)): turbid | clear after (min.) (erythrocytes [1]; [7]): immediately

CCCCCCCCOC[n+]1cccc(C(N)=O)c1.[Cl-] [3-Carbamoyl-1-octyloxymethyl pyridiniumchloride]
time until optically clear lysate is obtained ([3]; 50 microliter blood into 130 microliter reagent, about 10% COMPCl): five | clear after (min.) (erythrocytes [1]; final concentration 1.5% (weight/volume)): immediately | clear after (min.) (erythrocytes [1]; final concentration 6.25% (weight/volume)): immediately | clear after (min.) (erythrocytes [1]; [8]): immediately

COc1c(C)c2c(c(O)c1C/C=C(\C)CCC(=O)OCCN1CCOCC1)C(=O)OC2 [MMF, mycophenolate mofetil]
therapeutic trough concentration [5]: 1000 to 3500 µg/L

CCCCCCCC[n+]1ccccc1.[Cl-] [N-Octylpyridiniumchloride]
clear after (erythrocytes [1]; [7]): 2 min

C=CC[C@@H]1/C=C(\C)C[C@H](C)C[C@H](OC)[C@H]2O[C@@](O)(C(=O)C(=O)N3CCCC[C@H]3C(=O)O[C@H](/C(C)=C/[C@@H]3CC[C@@H](O)[C@H](OC)C3)[C@H](C)[C@@H](O)CC1=O)[C@H](C)C[C@@H]2OC [Tacrolimus, tacrolimus]
potency relative to cyclosporin in vitro [6]: up to 100 times | therapeutic trough concentration [5]: 5 to 20 µg/L

CCCCCCCCOS(=O)(=O)[O-].CCCCn1cc[n+](C)c1 [l-Butyl-3-methyl-imidazoliumoctylsulfate, 1-Butyl-3-methyl-imidazoliumoctylsulfate]
clear after (min.) (erythrocytes [1]; [7]): immediately

CO[C@H]1C[C@@H]2CC[C@@H](C)[C@@](O)(O2)C(=O)C(=O)N2CCCC[C@H]2C(=O)O[C@H]([C@H](C)C[C@@H]2CC[C@@H](O)[C@H](OC)C2)CC(=O)[C@H](C)/C=C(\C)[C@@H](O)[C@@H](OC)C(=O)[C@H](C)C[C@H](C)/C=C/C=C/C=C/1C [sirolimus, rapamycin]
therapeutic trough concentration [5]: 5 to 15 µg/L

O [water, reference compound]
Light microscopy of hemolyzed whole blood, May-Grünwald staining (erythrocytes [2]; 1 in 10 diluted whole blood hemolyzed with water): Erythrocyte membranes and nuclei are visible
